Test results: patent US11111251B2, “Positive allosteric modulators of the muscarinic acetylcholine receptor M1” (Vanderbilt University, priority 2016, dated 2021)

Target: T1, human mAChR M1 (Homo sapiens, UniProt P11229)
T1 sequence (P11229 1-460): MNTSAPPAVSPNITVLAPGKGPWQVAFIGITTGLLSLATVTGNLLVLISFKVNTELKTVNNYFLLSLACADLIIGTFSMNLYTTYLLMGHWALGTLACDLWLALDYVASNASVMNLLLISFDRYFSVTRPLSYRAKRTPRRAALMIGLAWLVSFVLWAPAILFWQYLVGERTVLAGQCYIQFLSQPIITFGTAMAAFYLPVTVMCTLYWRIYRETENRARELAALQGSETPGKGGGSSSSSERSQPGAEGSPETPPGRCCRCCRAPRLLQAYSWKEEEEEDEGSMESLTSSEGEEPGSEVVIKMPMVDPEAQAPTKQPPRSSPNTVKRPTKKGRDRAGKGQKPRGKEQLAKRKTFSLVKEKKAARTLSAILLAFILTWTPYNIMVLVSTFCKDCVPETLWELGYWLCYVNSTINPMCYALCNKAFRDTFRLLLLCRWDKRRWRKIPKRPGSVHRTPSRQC
Assay: mAChR M1 cell-based functional assay: calcium mobilization, positive allosteric modulator mode (increase in EC20 acetylcholine response)
Details: Table 2, human M1; for EC50: read-out: Human M1 EC50; for Emax: read-out: Human M1 Emax (%)
Outline: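 PAM potency reflects the concentration-dependent increase in calcium response to an EC20 acetylcholine challenge, given 144 s into a 300 s read after compound addition at 4 s (EC80 follows at 230 s). Cells were hM1-expressing CHO-K1, loaded 50 min with Fluo-4 AM. Curves used 11 points at 1:3 dilutions and four-parameter logistic fitting.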

Structure (SMILES)	EC50	Emax
Cc1csc2c(Cc3ccc(-c4ccn(C)n4)cc3)cc(C(=O)NC3CC(F)C3)nc12 (stereo not drawn) [Compound 308, N-(3-fluorocyclobutyl)-3-methyl-7-[[4-(1-methylpyrazol-3-yl)phenyl]methyl]thieno[3,2-b]pyridine-5-carboxamide]	5360 nM	62.1%
Cc1csc2c(Cc3ccc(-c4ccn(C)n4)cc3)cc(C(=O)NC3CC(F)(F)C3)nc12 [Compound 309, N-(3,3-difluorocyclobutyl)-3-methyl-7-[[4-(1-methylpyrazol-3-yl)phenyl]methyl]thieno[3,2-b]pyridine-5-carboxamide]	4930 nM	57.3%
Cc1csc2c(Cc3ccc(-c4ccn(C)n4)cc3)cc(C(=O)NCC3CCO3)nc12 (stereo not drawn) [Compound 310, 3-methyl-7-[[4-(1-methylpyrazol-3-yl)phenyl]methyl]-N-(oxetan-2-ylmethyl)thieno[3,2-b]pyridine-5-carboxamide]	471 nM	78.1%
Cc1csc2c(Cc3ccc(-c4ccn(C)n4)cc3)cc(C(=O)NCC3CCOC3)nc12 (stereo not drawn) [Compound 311, 3-methyl-7-[[4-(1-methylpyrazol-3-yl)phenyl]methyl]-N-(tetrahydrofuran-3-ylmethyl)thieno[3,2-b]pyridine-5-carboxamide]	714 nM	77.1%
Cc1csc2c(Cc3ccc(-c4ccn(C)n4)cc3)cc(C(=O)N[C@H]3CCCC[C@@H]3O)nc12 [Compound 312, N-[(1S,2S)-2-hydroxycyclohexyl]-3-methyl-7-[[4-(1-methylpyrazol-3-yl)phenyl]methyl]thieno[3,2-b]pyridine-5-carboxamide]	109 nM	65.5%
Cc1csc2c(Cc3ccc(-c4ccn(C)n4)cc3)cc(C(=O)N[C@H]3CCOC[C@@H]3O)nc12 [Compound 313]	22.7 nM	63.9%
O=C(N[C@H]1CCC[C@@H]1O)c1cc(Cc2ccc(-c3nccs3)cc2)c2sccc2n1 [Compound 314]	203 nM	84.1%
Cc1csc2c(Cc3ccc(-n4cccn4)cc3)cc(C(=O)NC3CC4(COC4)C3)nc12 [Compound 315, 3-methyl-N-(2-oxaspiro[3.3]heptan-6-yl)-7-[(4-pyrazol-1-ylphenyl)methyl]thieno[3,2-b]pyridine-5-carboxamide]	475 nM	82.3%
Cc1csc2c(Cc3ccc(-n4cccn4)cc3)cc(C(=O)N[C@@H]3CCOC3)nc12 [Compound 316, 3-methyl-7-[(4-pyrazol-1-ylphenyl)methyl]-N-[(3R)-tetrahydrofuran-3-yl]thieno[3,2-b]pyridine-5-carboxamide]	1090 nM	56.5%
Cc1csc2c(Cc3ccc(-n4cccn4)cc3)cc(C(=O)N[C@H]3CCOC3)nc12 [Compound 317, 3-methyl-7-[(4-pyrazol-1-ylphenyl)methyl]-N-[(3S)-tetrahydrofuran-3-yl]thieno[3,2-b]pyridine-5-carboxamide]	1680 nM	43.1%
Cc1csc2c(Cc3ccc(-n4cccn4)cc3)cc(C(=O)NCC3CCOCC3)nc12 [Compound 318, 3-methyl-7-[(4-pyrazol-1-ylphenyl)methyl]-N-(tetrahydropyran-4-ylmethyl)thieno[3,2-b]pyridine-5-carboxamide]	1410 nM	72.2%
Cc1csc2c(Cc3ccc(-n4cccn4)cc3)cc(C(=O)NC3COC3)nc12 [Compound 319, 3-methyl-N-(oxetan-3-yl)-7-[(4-pyrazol-1-ylphenyl)methyl]thieno[3,2-b]pyridine-5-carboxamide]	1810 nM	56.1%
Cc1csc2c(Cc3ccc(-n4cccn4)cc3)cc(C(=O)NCC3CCCCO3)nc12 (stereo not drawn) [Compound 320, 3-methyl-7-[(4-pyrazol-1-ylphenyl)methyl]-N-(tetrahydropyran-2-ylmethyl)thieno[3,2-b]pyridine-5-carboxamide]	3980 nM	60.7%
Cc1csc2c(Cc3ccc(-n4cccn4)cc3)cc(C(=O)NCC3CCOC3)nc12 (stereo not drawn) [Compound 321, 3-methyl-7-[(4-pyrazol-1-ylphenyl)methyl]-N-(tetrahydrofuran-3-ylmethyl)thieno[3,2-b]pyridine-5-carboxamide]	805 nM	79.2%
Cc1csc2c(Cc3ccc(-n4cccn4)cc3)cc(C(=O)NC[C@H]3CCCO3)nc12 [Compound 322, 3-methyl-7-[(4-pyrazol-1-ylphenyl)methyl]-N-[[(2R)-tetrahydrofuran-2-yl]methyl]thieno[3,2-b]pyridine-5-carboxamide]	620 nM	75.1%
Cc1csc2c(Cc3ccc(-n4cccn4)cc3)cc(C(=O)NC[C@@H]3CCCO3)nc12 [Compound 323, 3-methyl-7-[(4-pyrazol-1-ylphenyl)methyl]-N-[[(2S)-tetrahydrofuran-2-yl]methyl]thieno[3,2-b]pyridine-5-carboxamide]	689 nM	76.8%
Cc1csc2c(Cc3ccc(-n4cccn4)cc3)cc(C(=O)NCC3CCO3)nc12 (stereo not drawn) [Compound 324, 3-methyl-N-(oxetan-2-ylmethyl)-7-[(4-pyrazol-1-ylphenyl)methyl]thieno[3,2-b]pyridine-5-carboxamide]	1050 nM	78.9%
Cn1ccc(-c2ccc(Cc3cc(C(=O)NC4CCOC(C)(C)C4)nc4ccsc34)cc2)n1 (stereo not drawn) [Compound 325, N-(2,2-dimethyltetrahydropyran-4-yl)-7-[[4-(1-methylpyrazol-3-yl)phenyl]methyl]thieno[3,2-b]pyridine-5-carboxamide]	907 nM	83.3%
CC1CC(NC(=O)c2cc(Cc3ccc(-c4ccn(C)n4)cc3)c3sccc3n2)CC(C)O1 (stereo not drawn) [Compound 326, N-(2,6-dimethyltetrahydropyran-4-yl)-7-[[4-(1-methylpyrazol-3-yl)phenyl]methyl]thieno[3,2-b]pyridine-5-carboxamide]	2840 nM	83.9%
Cn1cc(-c2ccc(Cc3cc(C(=O)NC4CC5(COC5)C4)nc4ccsc34)cn2)cn1 [Compound 327, 7-[[6-(1-methylpyrazol-4-yl)-3-pyridyl]methyl]-N-(2-oxaspiro[3.3]heptan-6-yl)thieno[3,2-b]pyridine-5-carboxamide]	166 nM	79.2%
Cn1cc(-c2ccc(Cc3cc(C(=O)N[C@H]4CC[C@@H]4O)nc4ccsc34)cn2)cn1 [Compound 328, N-[(1S,2S)-2-hydroxycyclobutyl]-7-[[6-(1-methylpyrazol-4-yl)-3-pyridyl]methyl]thieno[3,2-b]pyridine-5-carboxamide]	197 nM	80.5%
Cc1nc(-c2ccc(Cc3cc(C(=O)NC4CCOCC4)nc4c(C)csc34)cc2)co1 [Compound 329, 3-methyl-7-[[4-(2-methyloxazol-4-yl)phenyl]methyl]-N-tetrahydropyran-4-yl-thieno[3,2-b]pyridine-5-carboxamide]	458 nM	73.5%
Cc1nc(-c2ccc(Cc3cc(C(=O)N[C@H]4CCOC[C@@H]4O)nc4c(C)csc34)cc2)co1 [Compound 330, N-[(3R,4S)-3-hydroxytetrahydropyran-4-yl]-3-methyl-7-[[4-(2-methyloxazol-4-yl)phenyl]methyl]thieno[3,2-b]pyridine-5-carboxamide]	22.8 nM	62.8%
Cc1nc(-c2ccc(Cc3cc(C(=O)N[C@H]4CCC[C@@H]4O)nc4c(C)csc34)cc2)co1 [Compound 331, N-[(1S,2S)-2-hydroxycyclopentyl]-3-methyl-7-[[4-(2-methyloxazol-4-yl)phenyl]methyl]thieno[3,2-b]pyridine-5-carboxamide]	368 nM	69.7%
O=C(NC1CCOCC1)c1cc(C(F)c2ccc(-c3cscn3)cc2)c2sccc2n1 (stereo not drawn) [Compound 332, 7-[fluoro-(4-thiazol-4-ylphenyl)methyl]-N-tetrahydropyran-4-yl-thieno[3,2-b]pyridine-5-carboxamide]	56.9 nM	69%
O=C(NC1CC2(COC2)C1)c1cc(Cc2ccc(-c3nccs3)cc2)c2sccc2n1 [Compound 333]	446 nM	84.7%
Cn1cc(-c2ccc(Cc3cc(C(=O)NCC4CCOCC4)nc4ccsc34)cn2)cn1 [Compound 334, 7-[[6-(1-methylpyrazol-4-yl)-3-pyridyl]methyl]-N-(tetrahydropyran-4-ylmethyl)thieno[3,2-b]pyridine-5-carboxamide]	103 nM	83%
CC1CC(NC(=O)c2cc(Cc3ccc(-c4cnn(C)c4)nc3)c3sccc3n2)CC(C)O1 (stereo not drawn) [Compound 335, N-(2,6-dimethyltetrahydropyran-4-yl)-7-[[6-(1-methylpyrazol-4-yl)-3-pyridyl]methyl]thieno[3,2-b]pyridine-5-carboxamide]	158 nM	83.6%
Cn1cc(-c2ccc(Cc3cc(C(=O)NC4CCOC(C)(C)C4)nc4ccsc34)cn2)cn1 (stereo not drawn) [Compound 336, N-(2,2-dimethyltetrahydropyran-4-yl)-7-[[6-(1-methylpyrazol-4-yl)-3-pyridyl]methyl]thieno[3,2-b]pyridine-5-carboxamide]	64.3 nM	58.4%
CC1(C)CC(NC(=O)c2cc(Cc3ccc(-c4nccs4)cc3)c3sccc3n2)CCO1 (stereo not drawn) [Compound 337]	852 nM	84.2%
